Measured values reported in patent US11752219B2, “Substrate delivery of embedded liposomes” (NUtech Ventures, priority 2015, dated 2023).
In brackets after ≈: the same amount, converted by molar mass.

What was measured:
A172 = assay: DOX potency assay (MTT); assay type: cell-based; details: DOX concentration, 24-hour incubation
Experimental: (§1) Encapsulation of DOX into HALNPs Doxorubicin (DOX) was encapsulated inside the aqueous core of the HALNPs as described above and in Hayward et al, Sci. Rep. 2015, 5:14683. Briefly, a vial of lyophilized HALNPs (0.5 mg lipid) was brought to room temperature, and rehydrated with 1/10th its original pre-lyophilized volume of 0.05×PBS containing 250 μg DOX. Following a thirty minute incubation time to allow for lipid membrane re-assembly, the vial was brought back to its full pre-lyophilized volume with 1×PBS and ultracentrifuged to remove non-encapsulated DOX (140,000 g, 4° C., and 1.25 hr.). The auto-fluorescent property of DOX was then used to determine the entrapment payload. […]
(§2) To determine the effect of free DOX and HALNPDOX on the cell viability of Cort Astro, MG and A172 cells, an MTT assay was utilized as described herein to calculate the lethal concentration to kill 50% of the cells (see also, e.g., Hayward et al, Sci. Rep. 2015, 5:14683; Wilson et al, Nanoscale, 2015, 7:18477-18488; Natarajan et al, PLOS One, 2015, 10:e0134541). […] The cells were then lysed with acidified IPA and the absorbance of the produced formazan crystals was measured using a Beckman Coulter AD340 plate reader (Indianapolis, Ind., USA). Percent viability was determined by normalization of the 570/620 absorbance ratio to the control untreated cells and positive control dead cells (ethanol treated).

[1] = tested on: 21MT-1 metastatic breast cancer cells; assay: Doxorubicin potency assay (MTT); assay type: cell-based, human; details: DOX concentration, 24 hours
Experimental: The DOX concentration lethal to 50% of the 21MT-1 cells (LC50) was determined utilizing the MTT (3-(4,5-[…])2,5-diphenyl tetrazolium bromide) assay kit from Life Technologies (Carlsbad, Calif., USA). This colorimetric assay assesses cell health as a function of the mitochondrial conversion of MTT salt to Formazan. A two-step procedure was implemented for precise loading of DOX into the HALNPs and then into the HALNP-PEM platform.
First a solution of […] of DOX in 0.05×PBS was used to rehydrate a lyophilized vial of HALNPs and excess (un-encapsulated) DOX was removed using ultracentrifugation (140,000 g, 1.25 hrs, 4° C.). […] The initial vial of HALNPs (1 mg Total Lipid) concentration was known, thus both the total amount of encapsulated DOX and lipid were fully determined. […]
21MT-1 cells were seeded at a density of 32,000 cells/well in three 48 well plates with different DOX configurations: 1) PEM platform with embedded HALNPDOX [(PLL/SPS)4.5(HALNPDOX)(PLL/SPS)2.5], 2) Bolus form HALNPDOX, and 3) free non-encapsulated DOX. […] Cells were then lysed with lysis buffer (acidified IPA) and the absorbance was measured at 570 and 620 nm using a Beckman Coulter AD340 plate reader (Indianapolis, Ind., USA). Percent viability was determined by normalization of the 570/620 absorbance ratio to the control untreated cells and positive control dead cells.

MG = assay: DOX potency assay (MTT); assay type: cell-based, mouse; details: DOX concentration, 24-hour incubation
Experimental: as §1, §2

Cort Astro = assay: DOX potency assay (MTT); assay type: cell-based, rat; details: DOX concentration, 24-hour incubation
Experimental: as §1, §2

## COc1cccc2c1C(=O)c1c(O)c3c(c(O)c1C2=O)C[C@@](O)(C(=O)CO)C[C@@H]3O[C@H]1C[C@H](N)[C@H](O)[C@H](C)O1 [Free DOX, doxorubicin]
A172
  LC50 values: 0.193 ± 0.030 µg/mL (≈ 0.355 µM)
[1]
  LC50: 0.191 ± 0.0301 µg/mL (≈ 0.351 µM)
MG
  LC50 values: 0.267 ± 0.050 µg/mL (≈ 0.491 µM)
Cort Astro
  LC50 values: 0.322 ± 0.053 µg/mL (≈ 0.592 µM)
